Assay results reported in PMC3656252 (The Journal of Biological Chemistry, 2013).
Blank lines part the entries; values can stand above or below the molecule they belong to. No end group written: not given here.

What was measured:
DP9 [1] = assay: 1.7 milliunits of recombinant DP9 in assay buffer: 50 mM Tris, 100 mM NaCl, pH 8.0; conditions: human, 37 °C, up to 24 h
DP8 [2] = assay: 1.7 milliunits of recombinant DP8 in assay buffer: 50 mM Tris, 100 mM NaCl, pH 8.0; conditions: human, 37 °C, up to 24 h
DP8 [3] = conditions: cited from earlier work
Description: (§1) In vitro, both DP8 and DP9 cleave the well known DP4 substrates neuropeptide Y(1–36), glucagon-like peptide-1(7–36), glucagon-like peptide-2(1–33), and peptide YY(1–36) ([18], [19]). […] However, as DP8 and DP9 are intracellular enzymes, it is unlikely that these secreted substrates will be of physiological relevance in vivo. Clues for their in vivo roles come from studies blocking DP ...

DP9 [4] = conditions: cited from earlier work
Description: as §1

not cleaved (DP9 [1]): nc (not cleaved) after 24 h | not cleaved (DP8 [2]): nc (not cleaved) after 24 h
Molecule: AEVKKPAAAAAPGTAEKLSP

cleaved bond (DP9 [1]): P-A | cleaved bond (DP8 [2]): P-A
Molecule: APAEILNGKEISAQIR

cleaved bond (DP9 [1]): P-G | cleaved bond (DP8 [2]): P-G
Molecule: APGQLALFSVSDKTGLVEFAR

cleaved bond (DP9 [1]): P-K | cleaved bond (DP8 [2]): P-K
Molecule: APKFPDSVEELRAAG

cleaved bond (DP9 [1]): P-L | cleaved bond (DP8 [2]): P-L
Molecule: APLDLDKYVEIARLCK

cleaved bond (DP9 [1]): P-S, 1 h | cleaved bond (DP8 [2]): P-S, 1 h
Molecule: APSVPAAEPEYPKGIR

cleaved bond (DP9 [1]): P-V | cleaved bond (DP8 [2]): P-V
Molecule: APVLSKDSADIESILALNPR

not cleaved (DP9 [1]): nc (not cleaved) after 24 h | not cleaved (DP8 [2]): nc (not cleaved) after 24 h
Molecule: ASGANFEYIIAEKRGK

not cleaved (DP9 [1]): nc (not cleaved) after 24 h | not cleaved (DP8 [2]): nc (not cleaved) after 24 h
Molecule: ATAKGIAIGIDLGTTYSCVG

not cleaved (DP9 [1]): nc (not cleaved) after 24 h | not cleaved (DP8 [2]): nc (not cleaved) after 24 h
Molecule: DDEVDVDGTVEEDLGKSR

cleaved bond (DP9 [1]): P-A, 1 h | cleaved bond (DP8 [2]): P-A, 1 h
Molecule: EPAVYFKEQFLDGDGWTSR

cleaved bond (DP9 [1]): P-K | cleaved bond (DP8 [2]): P-K
Molecule: PPKKGGDGIKPPPIIGR

cleaved bond (DP9 [1]): P-A | cleaved bond (DP8 [2]): P-A
Molecule: SPADLPKSWDWRNVDG

not cleaved (DP9 [1]): nc (not cleaved) after 24 h | not cleaved (DP8 [2]): nc (not cleaved) after 24 h
Molecule: VSKPTLKEVVIVSATR

Molecule: glucagon-like peptide-1(7–36): well known DP4 substrate (HAEGTFTSDVSSYLEGQAAKEFIAWLVKGR; ends and bridges not checked; UniProt P01275 98-127, looked up)
Cleavage by DP8 in vitro (DP8 [3]): cleave | Cleavage by DP9 in vitro (DP9 [4]): cleave

Molecule: glucagon-like peptide-2(1–33): well known DP4 substrate (HADGSFSDEMNTILDNLAARDFINWLIQTKITD; Glucagon-like peptide 2; UniProt P01275 146-178, looked up)
Cleavage by DP8 in vitro (DP8 [3]): cleave | Cleavage by DP9 in vitro (DP9 [4]): cleave

Molecule: interferon-γ-inducible protein: chemokine, known DP4 substrate
DP8 cleavage of chemokines in vitro (DP8 [3]): cleavage

Molecule: neuropeptide Y(1–36): well known DP4 substrate
Cleavage by DP8 in vitro (DP8 [3]): cleave | Cleavage by DP9 in vitro (DP9 [4]): cleave

Molecule: peptide YY(1–36): well known DP4 substrate
Cleavage by DP8 in vitro (DP8 [3]): cleave | Cleavage by DP9 in vitro (DP9 [4]): cleave

B1: interferon-inducible T cell α-chemoattractant: chemokine, known DP4 substrate (protein, UniProt O14625 22-94, looked up)
C-X-C motif chemokine 11: FPMFKRGRCLCIGPGVKAVKVADIEKASIMYPSNNCDKIEVIITLKENKGQRCLNPKSKQARLIIKKVERKNF
DP8 cleavage of chemokines in vitro (DP8 [3]): cleavage
